Where a name gives a salt, the structure may show the parent alone.

Our source for the hygroscopicity values is patent US7928085B2, “P-toluene sulfonic acid salt of 5-amino-3-(2′-O-acetyl-3′-deoxy-β-D-ribofuranosyl)-3H-thiazole[4,5-d]pyrimidine-2-one and methods for preparation” (Anadys Pharmaceuticals, Inc., priority 2006, dated 2011).

The data set can be described thus: hygroscopicity of the solid form. The data set is classed as physicochemical. The conditions noted are these: solid substance, amorphous free base versus crystalline p-toluene sulfonic acid salt.

Take `CC(=O)O[C@@H]1C[C@@H](CO)O[C@H]1n1c(=O)sc2cnc(N)nc21` [Formula 5, 5-amino-3-(2′-O-acetyl-3′-deoxy-beta-D-ribofuranosyl)-3H-thiazolo[4,5-d]pyrimidin-2-one]: the hygroscopicity result was “hydroscopic”.
`CC(=O)O[C@@H]1C[C@@H](CO)O[C@H]1n1c(=O)sc2cnc(N)nc21` [Formula (1), p-toluene sulfonic acid salt of 5-amino-3-(2′-O-acetyl-3′-deoxy-beta-D-ribofuranosyl)-3H-thiazolo[4,5-d]pyrimidin-2-one]: the hygroscopicity entry (listed as p-toluene sulfonic salt) is given as “only slightly hygroscopic”.
